The values below come from PubChem BioAssay AID1963974 (Molecular Pharmacology Branch, DTP, NCI, 2024).

The term IC50 denotes the concentration that inhibits the measured activity by half. A word on the viability, T/C: it is the ratio of treated to control.

Each structure is given as a SMILES string. Several values for one entry are separate records, joined by “and”; a condition that tells them apart may be missing. Equal values may be shown once.

The subject of the experiment is 648629-189-R-J1-PDC spheroids with HUVEC/MSC, viability. The experiment is described as follows: Anticancer human tumor 648629-189-R-J1-PDC patient-derived bladder carcinoma cell line growth inhibition [PI3K]. Conditions: for viability, T/C: stronger effect = lower value. The text has this: Combinatorial screen of targeted agents with the PI3K inhibitors inavolisib, alpelisib, duvelisib, and copanlisib in multi-cell type tumor spheroids
A high-throughput screen of multi-cell type tumor spheroids was designed to identify active combinations of targeted small molecules and PI3K pathway inhibitors. Complex spheroids include a stromal component modeled by human endothelial cells (HUVEC) and fibroblasts modeled by human mesenchymal stem cells (MSCs). The concentration ranges selected for each drug and investigational agent were based upon clinically achievable concentrations if the clinical Cmax of the agent was known.
Compounds. The drugs and investigational agents: inavolisib (NSC800729), alpelisib (NSC765974), duvelisib (NSC772469), copanlisib (NSC816437), ipatasertib (NSC767898), afuresertib (NSC778305), talazoparib (NSC767125), sapanisertib (NSC764658), selumetinib (NSC741078), tovorafenib (DAY101, NSC766906), vemurafenib (NSC761431), ravoxertinib (NSC781343), sotorasib (NSC818433), MRTX1133 (NSC 836407), abemaciclib (NSC 768073), palbociclib (NSC758247), venetoclax (NSC 766270), SY5609 (NSC837396), enzalutamide (NSC755605), and darolutamide (NSC825331), were obtained from the National Cancer Institute (NCI) Developmental Therapeutics Program Chemical Repository. The FDA-approved anticancer drug set is available from the NCI Developmental Therapeutics Program. […] The stock solutions were prepared in dimethyl sulfoxide (DMSO, Sigma-Aldrich, St. Louis, MO, cat. D2650) at 800-fold the tested concentration and stored at -70 degrees C prior to their use. All drugs and investigational agents were tested over a range starting from a high concentration at or near the clinical Cmax and decreasing in half-log increments. If the clinical Cmax for an agent had not been determined, the highest concentration tested was 10 microM.
Cell Culture. All cells were maintained in an incubator at 37 degrees C and 5% CO2 with 95% humidity. The PDC lines were cultured according to standard operating procedures established by the NCI PDMR (https://pdmr.cancer.gov/sops/default.htm). All PDCs were thawed and cultured in Matrigel-coated flasks prepared with a working solution of 1X Ham's F-12 nutrient mix, without supplementation (Invitrogen, Waltham, MA, cat. 11765054), 100 U/mL penicillin-streptomycin (Invitrogen, cat. 15140122), and 2.5% Matrigel (Corning Inc., Corning, NY, cat. 354248) for the first three passages. The 354836-022-R-J1-PDC, 475296-252-R-J1-PDC, and 997726-040-R-J2-PDC lines were cultured in 6A media, which includes advanced DMEM/F-12 (Thermo Fisher Scientific, cat. 12634028), 10 mM HEPES (Thermo Fisher Scientific, cat. 15630080), 1X GlutaMAX supplement (Thermo Fisher Scientific, cat. 35050061), 0.1 mg/mL primocin (InvivoGen, San Diego, CA, cat. ant-pm-2), 10% defined fetal bovine serum, heat inactivated (HyClone Laboratories Inc., Logan, UT, cat. SH30070.03HI), 50% L-WRN conditioned media (ATCC, cat. CRL-3276), 1.25 mM N-Acetyl-L-cysteine (Sigma-Aldrich, cat. A9165), 10 mM nicotinamide (Sigma-Aldrich, cat. N0636), 1X B-27 supplement (Thermo Fisher Scientific, cat. 17504044), 1X N-2 supplement (Thermo Fisher Scientific, cat. 17502048), and 10 microM Y-27632 dihydrochloride (Tocris Bioscience, Bristol, United Kingdom, cat. 1254). The 624824-186-R-J2-PDC line was cultured in 6C/Colon 1B media, which includes all 6A media components plus 50 ng/mL human EGF recombinant protein (Thermo Fisher Scientific, cat. PHG0311). […]

[1] abbreviates: curve of first compound, second compound 0.00316 µM.
The mark [2] stands for this setting: curve of first compound, second compound 0.01 µM.
Setting [3] is: curve of first compound, second compound 0.0316 µM.
[4] abbreviates: curve of first compound, second compound 0.1 µM.
Setting [5] is: curve of first compound, second compound 0.316 µM.
The mark [6] stands for this setting: curve of first compound, second compound 1 µM.
[7] abbreviates: second compound 0.00316 µM, first compound 0.0316 µM.
[8] abbreviates: second compound 0.00316 µM, first compound 0.1 µM.
Setting [9] is: second compound 0.00316 µM, first compound 0.316 µM.
The mark [10] stands for this setting: second compound 0.00316 µM, first compound 1 µM.
The mark [11] stands for this setting: second compound 0.00316 µM, first compound 3.16 µM.
Setting [12] is: second compound 0.00316 µM, first compound 10 µM.
Where [13] appears, read: second compound 0.01 µM, first compound 0.0316 µM.
[14] abbreviates: second compound 0.01 µM, first compound 0.1 µM.
[15] abbreviates: second compound 0.01 µM, first compound 0.316 µM.
[16] abbreviates: second compound 0.01 µM, first compound 1 µM.
Setting [17] is: second compound 0.01 µM, first compound 3.16 µM.
The mark [18] stands for this setting: second compound 0.01 µM, first compound 10 µM.
Setting [19] is: second compound 0.0316 µM, first compound 0.0316 µM.
Where [20] appears, read: second compound 0.0316 µM, first compound 0.1 µM.
[21] abbreviates: second compound 0.0316 µM, first compound 0.316 µM.
Setting [22] is: second compound 0.0316 µM, first compound 1 µM.
[23] abbreviates: second compound 0.0316 µM, first compound 3.16 µM.
Where [24] appears, read: second compound 0.0316 µM, first compound 10 µM.
[25] abbreviates: second compound 0.1 µM, first compound 0.0316 µM.
Where [26] appears, read: second compound 0.1 µM, first compound 0.1 µM.
Where [27] appears, read: second compound 0.1 µM, first compound 0.316 µM.
[28] abbreviates: second compound 0.1 µM, first compound 1 µM.
Where [29] appears, read: second compound 0.1 µM, first compound 3.16 µM.
Where [30] appears, read: second compound 0.1 µM, first compound 10 µM.
Where [31] appears, read: second compound 0.316 µM, first compound 0.0316 µM.
The mark [32] stands for this setting: second compound 0.316 µM, first compound 0.1 µM.
The mark [33] stands for this setting: second compound 0.316 µM, first compound 0.316 µM.
Where [34] appears, read: second compound 0.316 µM, first compound 1 µM.
[35] abbreviates: second compound 0.316 µM, first compound 3.16 µM.
The mark [36] stands for this setting: second compound 0.316 µM, first compound 10 µM.
Setting [37] is: second compound 1 µM, first compound 0.0316 µM.
Where [38] appears, read: second compound 1 µM, first compound 0.1 µM.
Setting [39] is: second compound 1 µM, first compound 0.316 µM.
Where [40] appears, read: second compound 1 µM, first compound 1 µM.
Where [41] appears, read: second compound 1 µM, first compound 3.16 µM.
The mark [42] stands for this setting: second compound 1 µM, first compound 10 µM.
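Note: spheroids exposed to agents for seven days before reading.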
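Throughout, for viability, T/C: percent of vehicle control luminescence where 100% = DMSO treated spheroids.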

For the compound `CC1(C)CCC(Nc2ncc(C(F)(F)F)c(-c3c[nH]c4c(P(C)(C)=O)c(C#N)ccc34)n2)CN1` (stereo not given) + CC(Nc1ccc2c(c1)OCCn1cc(N3C(=O)OCC3C(F)F)nc1-2)C(N)=O, the IC50 was under 31.6 nM under setting [1]; under 31.6 nM under setting [2]; under 31.6 nM under setting [3]; under 31.6 nM under setting [4]; under 31.6 nM under setting [5]; under 31.6 nM under setting [6]. Further, the viability, T/C is 27.7% under setting [7]; 27.2% under setting [8]; 26.8% under setting [9]; 35.4% under setting [10]; 38.7% under setting [11]; 2.42% under setting [12]. Besides, the viability, T/C was 25.3% under setting [13]; 25.8% under setting [14]; 26.3% under setting [15]; 31.1% under setting [16]; 38.2% under setting [17]; 3.09% under setting [18]. In addition, the viability, T/C is, setting by setting: under setting [19], 26.6%; under setting [20], 23.4%; under setting [21], 26.6%; under setting [22], 28.5%; under setting [23], 37.6%; under setting [24], 3%. Besides, the viability, T/C is, setting by setting: under setting [25], 24.1%; under setting [26], 23.4%; under setting [27], 26.1%; under setting [28], 23.4%; under setting [29], 33.1%; under setting [30], 2.67%. The viability, T/C was 23.4% under setting [31]; 25.8% under setting [32]; 23.8% under setting [33]; 28.9% under setting [34]; 29.8% under setting [35]; 2.95% under setting [36]. Moreover, the viability, T/C under setting [37] was 19.8%; the viability, T/C under setting [38] was 22.6%; the viability, T/C under setting [39] is 26.1%; the viability, T/C under setting [40] is 23.1%; the viability, T/C under setting [41] is 27.2%; the viability, T/C under setting [42] is 1.52%.
For `CC1(C)CCC(Nc2ncc(C(F)(F)F)c(-c3c[nH]c4c(P(C)(C)=O)c(C#N)ccc34)n2)CN1` (stereo not given), the viability, T/C by setting is: (compound 0.0316 µM) 30.3% [middle of 4 runs]; (compound 0.1 µM) 27.1% [middle of 4 runs]; (compound 0.316 µM) 32.2% [middle of 4 runs]; (compound 1 µM) 36.1% [middle of 4 runs]; (compound 3.16 µM) 39.7% (2×) and 40.8% and 38.2%; (compound 10 µM) 5.52% [middle of 4 runs]. In addition, the IC50 (curve of compound) was under 31.6 nM.
Take `CC(=O)c1c(C)c2cnc(Nc3ccc(N4CCNCC4)cn3)nc2n(C2CCCC2)c1=O`: the viability, T/C (compound 0.000316 µM) is 101% [middle of 4 runs]; the viability, T/C (compound 0.001 µM) is 102% [middle of 4 runs]; the viability, T/C (compound 0.00316 µM) is 115% [middle of 4 runs]; the viability, T/C (compound 0.01 µM) is 97.2% [middle of 4 runs]; the viability, T/C (compound 0.0316 µM) is 100% [middle of 4 runs]; the viability, T/C (compound 0.1 µM) was 111% [middle of 4 runs]. Moreover, the IC50 (curve of compound) was over 100 nM.
`Cn1nccc1Nc1nccc(-c2ccn(C(CO)c3ccc(Cl)c(F)c3)c(=O)c2)n1` (stereo not given): the viability, T/C is 107% [middle of 4 runs] (compound 0.0316 µM); 104% [middle of 4 runs] (compound 0.1 µM); 112% [middle of 4 runs] (compound 0.316 µM); 110% [middle of 4 runs] (compound 1 µM); 110% [middle of 4 runs] (compound 3.16 µM); 81.2% [middle of 4 runs] (compound 10 µM). Further, the IC50 (curve of compound) was over 10000 nM.
In the case of `Cn1ncc(Cl)c1-c1cc(C(=O)NC(CN)Cc2cccc(F)c2)sc1Cl` (stereo not given) + CC(Nc1ccc2c(c1)OCCn1cc(N3C(=O)OCC3C(F)F)nc1-2)C(N)=O, the IC50 is over 10000 nM under setting [1]; 766 nM under setting [2]; over 10000 nM under setting [3]; 270 nM under setting [4]; 209 nM under setting [5]; 162 nM under setting [6]. In addition, the viability, T/C under setting [7] is 97%; the viability, T/C under setting [8] is 87.4%; the viability, T/C under setting [9] is 50.5%; the viability, T/C under setting [10] was 30.1%; the viability, T/C under setting [11] was 20.2%; the viability, T/C under setting [12] was 102%. Besides, the viability, T/C was 88.8% under setting [13]; 91% under setting [14]; 56.1% under setting [15]; 32.6% under setting [16]; 17.5% under setting [17]; 94.3% under setting [18]. Besides, the viability, T/C is, setting by setting: under setting [19], 98%; under setting [20], 80.4%; under setting [21], 55.1%; under setting [22], 30.8%; under setting [23], 19.4%; under setting [24], 99.7%. The viability, T/C by setting is: under setting [25], 85.3%; under setting [26], 72.9%; under setting [27], 47.4%; under setting [28], 27.5%; under setting [29], 14.8%; under setting [30], 89%. The viability, T/C was 79.9% under setting [31]; 61.5% under setting [32]; 47.5% under setting [33]; 24% under setting [34]; 15.7% under setting [35]; 72.2% under setting [36]. Also, the viability, T/C is 56.2% under setting [37]; 62.1% under setting [38]; 37.3% under setting [39]; 22.6% under setting [40]; 13.2% under setting [41]; 67% under setting [42].
